According to ChEMBL document CHEMBL1201862, “PubChem BioAssay data set” (2004):
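Method: 48-hour compound exposure of cells in 96-well plates, five concentrations, linear interpolation of endpoints. GI50 = concentration required for 50% inhibition of growth.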 Activity calls are given as the source filed them. No stated cut-off is given here; in the data, active = GI50 up to about 1.1 µM and inactive = higher.

What was measured:
Experiment in all cases: inhibition of tumour cell growth, NCI panel, 48 h
M19-MEL = system: M19-MEL
KM-20L2 = system: KM-20L2
LXFL 529 = system: LXFL 529
XF498 = system: XF498
DMS-114 = system: DMS-114
DLD-1 = system: DLD-1
DMS-273 = system: DMS-273
RXF 631 = system: RXF 631
SNB-78 = system: SNB-78

Measured: GI50

CC1=C(C(=O)Nc2ccccc2)C(c2ccc3c(c2)OCO3)C(C(=O)Nc2ccccc2)=C(C)N1
inactive: M19-MEL 40.4 µM | KM-20L2 > 10 µM | LXFL 529 20 µM | XF498 24.2 µM | DMS-114 26.2 µM | DLD-1 36.8 µM | DMS-273 26.7 µM | RXF 631 28.7 µM

COc1ccc(Nc2nc3ccccc3nc2-c2cccs2)cc1
inactive: KM-20L2 60 µM | SNB-78 39.5 µM | LXFL 529 54.5 µM | XF498 78.2 µM | DMS-114 92.9 µM | DLD-1 > 100 µM | DMS-273 > 100 µM

Cn1cc(C(=O)c2ccccc2)ccc1=O
inactive: M19-MEL > 100 µM | KM-20L2 > 100 µM | SNB-78 > 100 µM | LXFL 529 > 100 µM | XF498 > 100 µM | DMS-114 > 100 µM | DLD-1 > 100 µM | DMS-273 > 100 µM

Nc1c(/N=N/c2ccc(-c3ccc(/N=N/c4c(O)ccc5cc(S(=O)(=O)O)cc(S(=O)(=O)O)c45)cc3)cc2)c(S(=O)(=O)O)cc2cc(S(=O)(=O)O)c(/N=N/c3ccccc3)c(O)c12
inactive: M19-MEL > 100 µM | SNB-78 > 84.3 µM | XF498 > 67.6 µM | DMS-114 > 100 µM | DLD-1 > 100 µM | DMS-273 > 86.9 µM

CCCCCCCCCC/C=C/C=O
inactive: M19-MEL > 100 µM | KM-20L2 > 100 µM | SNB-78 > 100 µM | LXFL 529 > 100 µM | XF498 > 100 µM | DMS-114 > 100 µM | DLD-1 > 100 µM | DMS-273 > 100 µM

O=C(/C(=C/c1ccc(O)cc1)c1ccccc1)c1ccccc1
inactive: M19-MEL 18.4 µM | SNB-78 24 µM | LXFL 529 16.4 µM | DMS-114 11.5 µM | DLD-1 15.9 µM | RXF 631 15.3 µM

N/C(S)=N/N=C/c1ccc(O)cn1
inactive: M19-MEL 11.1 µM | LXFL 529 19.7 µM | XF498 12.4 µM | DLD-1 21.4 µM | DMS-273 3.75 µM | RXF 631 31.2 µM

CC1=C(C(=O)Nc2cccc(Cl)c2)C(c2ccc([N+](=O)[O-])cc2)C(C(=O)Nc2cccc(Cl)c2)=C(C)N1
inactive: KM-20L2 20.2 µM | SNB-78 36.1 µM | LXFL 529 23.5 µM | DMS-114 21.2 µM | DLD-1 21.8 µM | RXF 631 19.8 µM

C=CC[N+](CCO)(CCO)CCCCCCCCCCCCCCCCCC
inactive: M19-MEL 3.34 µM | KM-20L2 3.66 µM | SNB-78 3.12 µM | DMS-114 3.96 µM | DLD-1 5.93 µM | DMS-273 2.26 µM

CCOC(=O)C(=O)Nc1ccccc1CC
inactive: M19-MEL > 100 µM | SNB-78 > 10 µM | LXFL 529 > 100 µM | XF498 > 100 µM | DMS-114 > 100 µM | DLD-1 > 100 µM | RXF 631 > 100 µM

CC1=C2[C@@H](c3ccccc3)C3C=CC2(C=C3C(F)(F)F)N(C(=O)NC2CCCCC2)C1=O (stereo partly specified)
inactive: M19-MEL 54.6 µM | KM-20L2 93.1 µM | SNB-78 36.1 µM | LXFL 529 36.1 µM | XF498 > 100 µM | DMS-114 35.1 µM | DLD-1 > 100 µM | DMS-273 80 µM | RXF 631 39.7 µM

OCc1ccccc1C1CSCSC1
inactive: M19-MEL > 100 µM | SNB-78 > 100 µM | LXFL 529 > 100 µM | XF498 > 100 µM | DMS-114 > 100 µM | DLD-1 > 100 µM | DMS-273 > 100 µM

CCOC(=O)C1(Cc2ccc3ccccc3c2)CCCCC(=O)N1 (stereo unspecified)
inactive: M19-MEL 48.6 µM | KM-20L2 30.5 µM | SNB-78 52.7 µM | LXFL 529 38 µM | XF498 30.4 µM | DMS-114 18.6 µM | DLD-1 25.6 µM | DMS-273 13.5 µM

N#CCC(=O)N/N=C1/C(=O)N(c2ccc(Cl)cc2)C(=O)C(=O)C1c1nc2ccccc2s1 (stereo unspecified)
inactive: M19-MEL 40.7 µM | KM-20L2 > 100 µM | SNB-78 > 100 µM | LXFL 529 > 100 µM | XF498 > 100 µM | DMS-114 > 100 µM | DLD-1 > 100 µM | DMS-273 > 100 µM

COC[C@H](C)/N=C/N1CCc2ccccc2C1(Cc1ccccc1)Cc1ccccc1
inactive: KM-20L2 10.8 µM | LXFL 529 11.8 µM | XF498 12.3 µM | DLD-1 8.18 µM | RXF 631 13.5 µM

C1CCC(OCc2nnn3c2CCC3)OC1 (stereo unspecified)
inactive: M19-MEL > 100 µM | KM-20L2 > 100 µM | SNB-78 > 100 µM | LXFL 529 > 100 µM | XF498 > 100 µM | DLD-1 > 100 µM
